Our source for the speed of sound and viscosity values is a compilation of properties of binary mixtures (doi:10.1016/j.jct.2022.106970).

Molecules are shown by their SMILES.

This data set can be described thus: xn = mol fraction of the nth substance listed. Particulars: 92.3 kPa, x2 = 0.

A word on the speed of sound: it is the propagation velocity of pressure waves in the medium. One may read the viscosity as the resistance of a fluid to flow. Lower therefore signals easy flow.

Take `CCO` + CCCC[NH3+].O=C[O-]: the speed of sound (293.15 K) stood at 1160.1 m/s, the speed of sound (298.15 K) was determined as 1142.9 m/s, the speed of sound (308.15 K) was found to be 1109 m/s and the speed of sound (313.15 K) is recorded as 1092.3 m/s. Moreover, the viscosity is, setting by setting: (293.15 K) 1.238 mPa·s; (298.15 K) 1.092 mPa·s; (308.15 K) 0.912 mPa·s; (313.15 K) 0.836 mPa·s.
